Literature values, collected in US20180014537A1, “NOVEL COMPOSITIONS AND METHODS FOR CONTROLLING SOIL BORNE PATHOGENS OF AGRICULTURAL CROPS” (ADJUVANTS UNLIMITED LLC, priority 2015, published 2018).

Tests used:
[1] = soil drench
[2] = in vivo
tomato seedlings = settings: at 24 hours, equivalent concentrations
Meloidogyne incognita = settings: 3.2 uL per liter as a soil drench

| Compound | concentration above which significant phytotoxicity occurred [1] | less phytotoxic than the parent pelargonic acid [2] | mortality of seedling (tomato seedlings) | control of Meloidogyne incognita (Meloidogyne incognita) |
| --- | --- | --- | --- | --- |
| CCCCCCCCC(=O)OC [PAME, pelargonic acid methyl ester] | exceeded 4.8 uL per liter | 40 fold | 100% | good control |
| CCCCCC[C@@H](O)C/C=C\CCCCCCCC(=O)OC [ricinoleic acid methyl ester] |  |  | 0% |  |
